The record followed here is patent US9938261B2, “Heterocyclic compounds and methods of use thereof” (AMBIT BIOSCIENCES CORPORATION, priority 2011, dated 2018).

Experiment [1] concerns the target T1, KIT (Homo sapiens, UniProt P10721).
T1 construct: made in house
In words: Competition binding assay, KIT Kd. To be noted: competition binding. An outline of the steps:
(§1)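 Phage-fused or HEK-293/DNA-tagged kinase + ligand-coated streptavidin beads + compound, 1 h RT with shaking. Wash, elute with free ligand 30 min RT, qPCR of eluted kinase. Kd: 11-point 3-fold series.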

Experiment [2] addresses T2, PDGFRβ (Homo sapiens, UniProt P09619).
T2 construct: made in house
In words: Competition binding assay, PDGFRβ Kd. Particulars: competition binding. The procedure, abridged:
as §1

In experiment [3] the test system is M-NFS-60 cells. In words: M-NFS-60 cell proliferation assay (Alamar Blue). It counts as cell-based, mouse. Particulars: Mus musculus; M-NFS-60 cell proliferation; read-out: CSF1R M-NFS-60 CTB:IC50. The procedure, abridged:
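Alamar Blue reduction (3 h; 560/590 nm) measured viability after 72 h, 37 °C treatment with nine half-log compound concentrations at 0.5% DMSO. Cells: M-CSF-dependent (20 ng/mL) murine M-NFS-60 in RPMI plus 10% FBS. IC50s, averaged from duplicates, reflect half-maximal inhibition of proliferation relative to control.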

Experiment [4] addresses kinase panel containing either 386 or 392 distinct kinases. In words: Kinase selectivity score S10 from competition binding panel. Particulars: 10 μM, panel of 386 or 392 distinct kinases. The procedure, abridged:
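S10 is the number of kinases with percent-of-control under 10, divided by all distinct wild-type kinases tested, from a single 10 μM concentration. Binding measured by qPCR of kinase recovered from ligand-coated beads after 1 h equilibrium at room temperature; kinases were phage fusions or DNA-tagged HEK-293 products.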

In experiment [5] the target is CSF1R (Homo sapiens, UniProt P07333). In words: Competition binding assay, CSF1R Kd. Also on record: made in house. To be noted: competition binding. An outline of the steps: as §1
CSF1R, sequence (P07333 20-972): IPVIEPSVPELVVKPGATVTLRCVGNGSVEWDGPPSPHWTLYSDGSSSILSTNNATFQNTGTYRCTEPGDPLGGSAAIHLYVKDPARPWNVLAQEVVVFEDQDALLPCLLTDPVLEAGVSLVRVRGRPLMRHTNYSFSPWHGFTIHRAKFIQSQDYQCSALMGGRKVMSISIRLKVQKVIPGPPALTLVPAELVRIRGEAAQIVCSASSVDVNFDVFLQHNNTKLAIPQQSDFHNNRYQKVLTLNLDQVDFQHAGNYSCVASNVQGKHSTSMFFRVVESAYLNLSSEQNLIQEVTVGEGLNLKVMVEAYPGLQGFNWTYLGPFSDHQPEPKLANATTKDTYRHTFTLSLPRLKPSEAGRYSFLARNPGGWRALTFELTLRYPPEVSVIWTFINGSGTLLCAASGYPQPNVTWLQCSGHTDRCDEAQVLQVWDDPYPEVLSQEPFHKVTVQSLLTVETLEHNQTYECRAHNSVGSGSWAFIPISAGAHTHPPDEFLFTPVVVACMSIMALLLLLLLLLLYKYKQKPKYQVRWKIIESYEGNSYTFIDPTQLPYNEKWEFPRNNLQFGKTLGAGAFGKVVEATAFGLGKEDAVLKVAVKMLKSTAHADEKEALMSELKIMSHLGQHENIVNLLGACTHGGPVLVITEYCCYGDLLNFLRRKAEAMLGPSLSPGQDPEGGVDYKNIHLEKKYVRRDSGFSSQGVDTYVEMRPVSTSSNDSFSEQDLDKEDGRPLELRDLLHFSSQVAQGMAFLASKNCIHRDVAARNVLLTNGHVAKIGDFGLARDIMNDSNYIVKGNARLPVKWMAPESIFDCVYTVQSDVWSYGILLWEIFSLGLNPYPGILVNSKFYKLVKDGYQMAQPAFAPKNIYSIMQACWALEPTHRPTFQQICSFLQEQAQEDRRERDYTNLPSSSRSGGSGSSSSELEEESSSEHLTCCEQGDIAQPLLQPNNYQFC

T2 sequence (P09619 33-1106): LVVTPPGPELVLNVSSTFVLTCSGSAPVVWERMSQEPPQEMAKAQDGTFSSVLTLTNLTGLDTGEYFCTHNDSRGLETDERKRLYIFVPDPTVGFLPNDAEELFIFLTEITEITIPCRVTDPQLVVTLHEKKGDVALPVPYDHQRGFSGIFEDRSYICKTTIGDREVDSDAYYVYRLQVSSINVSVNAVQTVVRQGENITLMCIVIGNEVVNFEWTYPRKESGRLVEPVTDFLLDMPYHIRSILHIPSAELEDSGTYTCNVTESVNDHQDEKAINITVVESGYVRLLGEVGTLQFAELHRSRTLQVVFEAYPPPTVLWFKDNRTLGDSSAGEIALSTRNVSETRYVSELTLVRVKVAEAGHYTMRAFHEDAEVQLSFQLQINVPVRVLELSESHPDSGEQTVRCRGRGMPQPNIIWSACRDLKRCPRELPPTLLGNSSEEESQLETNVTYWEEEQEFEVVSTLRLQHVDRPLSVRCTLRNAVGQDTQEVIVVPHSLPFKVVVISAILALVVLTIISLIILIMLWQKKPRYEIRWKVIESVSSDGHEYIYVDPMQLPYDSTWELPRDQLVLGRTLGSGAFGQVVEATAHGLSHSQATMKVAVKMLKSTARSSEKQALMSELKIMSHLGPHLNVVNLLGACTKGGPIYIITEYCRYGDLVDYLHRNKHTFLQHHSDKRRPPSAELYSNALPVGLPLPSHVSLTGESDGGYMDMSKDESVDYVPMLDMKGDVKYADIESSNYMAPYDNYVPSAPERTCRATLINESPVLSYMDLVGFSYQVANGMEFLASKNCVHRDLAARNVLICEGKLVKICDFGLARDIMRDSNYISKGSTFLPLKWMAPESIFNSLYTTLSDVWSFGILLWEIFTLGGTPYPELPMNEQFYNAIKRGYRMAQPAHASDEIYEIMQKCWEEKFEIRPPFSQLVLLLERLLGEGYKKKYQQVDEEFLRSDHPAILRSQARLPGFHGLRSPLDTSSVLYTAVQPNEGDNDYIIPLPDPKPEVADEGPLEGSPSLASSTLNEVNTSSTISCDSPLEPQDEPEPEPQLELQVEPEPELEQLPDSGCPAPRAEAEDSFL
T1 sequence (P10721 26-976): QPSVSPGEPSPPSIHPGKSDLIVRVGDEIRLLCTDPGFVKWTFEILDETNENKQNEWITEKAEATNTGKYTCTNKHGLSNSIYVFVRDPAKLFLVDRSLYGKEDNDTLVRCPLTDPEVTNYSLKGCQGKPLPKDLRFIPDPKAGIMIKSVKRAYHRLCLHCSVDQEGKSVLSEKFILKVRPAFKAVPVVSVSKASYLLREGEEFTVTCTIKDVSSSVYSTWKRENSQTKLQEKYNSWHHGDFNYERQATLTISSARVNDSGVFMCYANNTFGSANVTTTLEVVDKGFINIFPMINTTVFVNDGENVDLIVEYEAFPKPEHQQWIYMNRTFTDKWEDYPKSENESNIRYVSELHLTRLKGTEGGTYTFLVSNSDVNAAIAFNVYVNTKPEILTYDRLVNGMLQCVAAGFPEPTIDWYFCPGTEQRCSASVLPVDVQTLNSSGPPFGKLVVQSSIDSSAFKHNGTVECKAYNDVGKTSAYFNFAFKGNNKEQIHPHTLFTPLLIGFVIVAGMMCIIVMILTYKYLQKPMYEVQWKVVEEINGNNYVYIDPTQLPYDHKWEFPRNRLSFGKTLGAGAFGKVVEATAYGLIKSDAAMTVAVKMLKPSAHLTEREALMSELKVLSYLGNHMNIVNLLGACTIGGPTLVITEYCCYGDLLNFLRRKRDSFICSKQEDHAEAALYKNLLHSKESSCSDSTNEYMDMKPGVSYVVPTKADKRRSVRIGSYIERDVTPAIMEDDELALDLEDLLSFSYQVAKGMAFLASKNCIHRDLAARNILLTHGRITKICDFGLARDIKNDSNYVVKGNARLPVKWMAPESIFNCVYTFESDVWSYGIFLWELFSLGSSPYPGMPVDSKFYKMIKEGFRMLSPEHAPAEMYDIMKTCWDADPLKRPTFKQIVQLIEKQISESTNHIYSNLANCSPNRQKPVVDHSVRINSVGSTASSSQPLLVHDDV

Turning to `Fc1cnc2c(c1)ncn2Cc1ccc2nc(N[C@H]3C=CCCC3)sc2c1` [Example 176, (R)—N-(cyclohex-2-en-1-yl)-6-((6-fluoro-3H-imidazo[4,5-b]pyridin-3-yl)methyl)benzo[d]thiazol-2-amine], the Kd in experiment [1] is 100 to 500 nM; in experiment [2], 50 to 500 nM; in experiment [5] it was 5 to 20 nM. Further, the half-maximal inhibitory concentration (IC50) in experiment [3] was 400 to 1500 nM. Also, the “Kinase specificity S(10)” value in experiment [4] is “B (0.01<B≤0.02)”.

On to `N#Cc1ccc2ncc(Cc3ccc4nc(N[C@@H]5CCCC[C@H]5O)sc4c3)n2n1` [Example 221, 3-((2-(((1R,2R)-2-hydroxycyclohexyl)amino)benzo[d]thiazol-6-yl)methyl)imidazo[1,2-b]pyridazine-6-carbonitrile], for which the figures for the equilibrium dissociation constant (Kd) in experiment [1], in experiment [2] and in experiment [5] were ≤ 100 nM, ≤ 50 nM and ≤ 5 nM, respectively. Moreover, the IC50 in experiment [3] was ≤ 50 nM. Also, in experiment [4], the “Kinase specificity S(10)” value is on record as “B (0.01<B≤0.02)”.

For the molecule `O=c1c(N2CCOCC2)nccn1Cc1ccc2nc(N[C@@H]3CCCC[C@H]3O)sc2c1` [Example 222, 1-((2-(((1R,2R)-2-hydroxycyclohexyl)amino)benzo[d]thiazol-6-yl)methyl)-3-morpholinopyrazin-2(1H)-one], the Kd in experiment [1] is > 2000 nM; in experiment [2], 500 to 2000 nM; in experiment [5], 20 to 50 nM. Further, in experiment [3], the half-inhibitory concentration (IC50) is > 1500 nM. Further, in experiment [4], the “Kinase specificity S(10)” value was “A (A≤0.01)”.

`O=C(c1ccn2c(Cc3ccc4nc(N[C@@H]5CCCC[C@H]5O)sc4c3)cnc2c1)N1CCCC1` [Example 223, (3-((2-(((1R,2R)-2-hydroxycyclohexyl)amino)benzo[d]thiazol-6-yl)methyl)imidazo[1,2-a]pyridin-7-yl)(pyrrolidin-1-yl)methanone]: the Kd in experiment [1] lay within 100 to 500 nM; in experiment [2], 50 to 500 nM; in experiment [5], 5 to 20 nM. For the same molecule, the half-inhibitory concentration (IC50) in experiment [3] lay within 50 to 400 nM. In addition, the “Kinase specificity S(10)” value in experiment [4] is given as “A (A≤0.01)”.

In the case of `O=C(O)/C=C/c1ccc2c(c1)ncn2Cc1ccc2nc(N[C@@H]3CCCC[C@H]3O)sc2c1` [Example 224, (E)-3-(1-((2-(((1R,2R)-2-hydroxycyclohexyl)amino)benzo[d]thiazol-6-yl)methyl)-1H-benzo[d]imidazol-5-yl)acrylic acid], the dissociation constant Kd was ≤ 100 nM in experiment [1], 50 to 500 nM in experiment [2] and 5 to 20 nM in experiment [5]. Besides, the 50% inhibitory concentration (IC50) in experiment [3] was > 1500 nM. The “Kinase specificity S(10)” value in experiment [4] is listed as “A (A≤0.01)”.

In the case of `O[C@@H]1CCCC[C@H]1Nc1nc2ccc(Cn3cnc4cc(-n5ccnc5)ccc43)cc2s1` [Example 226, (1R,2R)-2-((6-((5-(1H-imidazol-1-yl)-1H-benzo[d]imidazol-1-yl)methyl)benzo[d]thiazol-2-yl)amino)cyclohexanol], the dissociation constant Kd in experiment [1] is ≤ 100 nM; in experiment [2], ≤ 50 nM; in experiment [5], ≤ 5 nM. Moreover, the IC50 in experiment [3] was ≤ 50 nM. Further, the “Kinase specificity S(10)” value in experiment [4] was “B (0.01<B≤0.02)”.

For the molecule `Cn1nnc(-c2ccc3c(c2)ncn3Cc2ccc3nc(N[C@@H]4CCCC[C@H]4O)sc3c2)n1` [Example 227, (1R,2R)-2-((6-((5-(2-methyl-2H-tetrazol-5-yl)-1H-benzo[d]imidazol-1-yl)methyl)benzo[d]thiazol-2-yl)amino)cyclohexanol], the Kd in experiment [1] was 100 to 500 nM; in experiment [2] it was 50 to 500 nM; in experiment [5], 5 to 20 nM. The 50% inhibitory concentration (IC50) in experiment [3] is ≤ 50 nM. In experiment [4], the “Kinase specificity S(10)” value is on record as “B (0.01<B≤0.02)”.

As for `O[C@H]1[C@@H](O)CCC[C@H]1Nc1nc2ccc(Cn3cnc4cc(F)cnc43)cc2s1` [Example 228, (1S,2R,3R)-3-((6-((6-fluoro-3H-imidazo[4,5-b]pyridin-3-yl)methyl)benzo[d]thiazol-2-yl)amino)cyclohexane-1,2-diol], the Kd in experiment [1] was 500 to 2000 nM; in experiment [2], 50 to 500 nM; in experiment [5], > 50 nM. Besides, in experiment [3], the IC50 was > 1500 nM. Also, the “Kinase specificity S(10)” value in experiment [4] is reported as “A (A≤0.01)”.

Turning to `O[C@@H]1[C@H](O)CCC[C@H]1Nc1nc2ccc(Cc3cnc4cc(-n5cccn5)ccn34)cc2s1` [Example 229, (1R,2S,3R)-3-((6-((7-(1H-pyrazol-1-yl)imidazo[1,2-a]pyridin-3-yl)methyl)benzo[d]thiazol-2-yl)amino)cyclohexane-1,2-diol], the Kd in experiment [1] is ≤ 100 nM; in experiment [2], ≤ 50 nM; in experiment [5], 5 to 20 nM. In experiment [3], the IC50 lay in the range of 50 to 400 nM. In addition, the “Kinase specificity S(10)” value in experiment [4] is reported as “A (A≤0.01)”.

For `O[C@@H]1[C@H](O)CCC[C@H]1Nc1nc2ccc(Cc3cnc4cc(-n5nccn5)ccn34)cc2s1` [Example 231, (1R,2S,3R)-3-((6-((7-(2H-1,2,3-triazol-2-yl)imidazo[1,2-a]pyridin-3-yl)methyl)benzo[d]thiazol-2-yl)amino)cyclohexane-1,2-diol], the dissociation constant (Kd) in experiment [1] was 500 to 2000 nM; in experiment [2], 50 to 500 nM; in experiment [5], 5 to 20 nM. In addition, the IC50 in experiment [3] is ≤ 50 nM. Besides, the “Kinase specificity S(10)” value in experiment [4] was “A (A≤0.01)”.

On to `C=Cc1ccc2c(c1)ncn2Cc1ccc2nc(N[C@@H]3CCC[C@@H](O)[C@H]3O)sc2c1` [Example 232, (1R,2S,3R)-3-((6-((5-vinyl-1H-benzo[d]imidazol-1-yl)methyl)benzo[d]thiazol-2-yl)amino)cyclohexane-1,2-diol], for which the Kd in experiment [1] was ≤ 100 nM; in experiment [2], ≤ 50 nM; in experiment [5], ≤ 5 nM. Moreover, the IC50 in experiment [3] is ≤ 50 nM. Further, the “Kinase specificity S(10)” value in experiment [4] was “A (A≤0.01)”.

As for `O[C@@H]1[C@H](O)CCC[C@H]1Nc1nc2ccc(Cn3cnc4cc(OC5COC5)ccc43)cc2s1` [Example 233, (1R,2S,3R)-3-((6-((5-(oxetan-3-yloxy)-1H-benzo[d]imidazol-1-yl)methyl)benzo[d]thiazol-2-yl)amino)cyclohexane-1,2-diol], the dissociation constant Kd was ≤ 100 nM in experiment [1], ≤ 50 nM in experiment [2] and ≤ 5 nM in experiment [5]. Further, the IC50 in experiment [3] lay within 50 to 400 nM. For the same molecule, in experiment [4], the “Kinase specificity S(10)” value is “A (A≤0.01)”.

`O[C@@H]1[C@H](O)CCC[C@H]1Nc1nc2ccc(Cn3cnc4cc(-n5cncn5)cnc43)cc2s1` [Example 234, (1R,2S,3R)-3-((6-((6-(1H-1,2,4-Triazol-1-yl)-3H-imidazo[4,5-b]pyridin-3-yl)methyl)benzo[d]thiazol-2-yl)amino)cyclohexane-1,2-diol]: the results for the Kd in experiment [1], in experiment [2] and in experiment [5] were ≤ 100 nM, ≤ 50 nM and 5 to 20 nM, respectively. In experiment [3], the IC50 is 50 to 400 nM. Further, in experiment [4], the “Kinase specificity S(10)” value was “A (A≤0.01)”.

Regarding `O[C@@H]1[C@H](O)CCC[C@H]1Nc1nc2ccc(Cn3cnc4cc(N5CCOCC5)ccc43)cc2s1` [Example 235, (1R,2S,3R)-3-((6-((5-morpholino-1H-benzo[d]imidazol-1-yl)methyl)benzo[d]thiazol-2-yl)amino)cyclohexane-1,2-diol], the Kd is ≤ 100 nM in experiment [1], ≤ 50 nM in experiment [2] and 5 to 20 nM in experiment [5]. The IC50 in experiment [3] lay within 50 to 400 nM. In addition, in experiment [4], the “Kinase specificity S(10)” value is recorded as “A (A≤0.01)”.

On to `Cn1nnc(-c2ccc3c(c2)ncn3Cc2ccc3nc(N[C@@H]4CCC[C@@H](O)[C@H]4O)sc3c2)n1` [Example 236, (1R,2S,3R)-3-((6-((5-(2-methyl-2H-tetrazol-5-yl)-1H-benzo[d]imidazol-1-yl)methyl)benzo[d]thiazol-2-yl)amino)cyclohexane-1,2-diol], for which the equilibrium dissociation constant (Kd) in experiment [1] was in the range of 100 to 500 nM; in experiment [2], 50 to 500 nM; in experiment [5], 5 to 20 nM. For the same molecule, the half-maximal inhibitory concentration (IC50) in experiment [3] lay within 50 to 400 nM. In addition, the “Kinase specificity S(10)” value in experiment [4] was “A (A≤0.01)”.
